System: human keratinocytes
Assay: Protective effect against ozone-induced peroxides in human keratinocytes (2,7-dichlorofluorescine diacetate / DCF fluorescence)
Type: cell-based
Settings: for % fluorescence observed ±SEM, expressed as % relative to the unprotected controls: ergothioneine 1 mM (24 h pretreatment at 0.5 mM), n=4; for drop in induced stress: ergothioneine 1 mM
Method: In a first stage, human keratinocytes obtained from plastic surgeries, inoculated beforehand on D-3 into a 48-well dish at a rate of 25 000 cells/cm^2, are pretreated with ergothioneine dissolved in the culture medium for 24 hours, at a final concentration of 0.5 mM. A marker, 0,2,7-dichlorofluorescine diacetate, is then incorporated: after removing the ergothioneine solution and rinsing with PBS, the human keratinocytes are placed in contact for 30 minutes with a solution of 2,7-dichlorofluorescine diacetate (320 μM in phosphate-buffered saline PBS) at a rate of 500 μl per well, and are then rinsed again with PBS. The cells are then exposed to ozone: after placing the cells in contact with a fresh solution of ergothioneine in PBS at a concentration of 1 mM, at a rate of 100 μl per well, the cells are exposed to ozone in an incubator (37° C., humid atmosphere) with an ozone concentration of 10 ppm. The effects induced by the ozone are then measured by measuring the appearance of 2,7-dichloroflorescine (DCF: excitation at 485 nm and emission at 530 nm) after different exposure times: 0, 5, 10 and 20 minutes. Four independent experiments were performed and each measurement was repeated six times. The appearance of ozone-generated peroxides in the cell is reflected by an increase in the fluorescence. For each time, the fluorescence values of the unprotected controls are set at 100%. The results, in the presence of ergothioneine, are then expressed relative to this control value. A reduction in this value indicates a protective effect of the extract.

C[N+](C)(C)[C@@H](Cc1c[nH]c(=S)[nH]1)C(=O)[O-] [ergothioneine]
% fluorescence observed ±SEM, expressed as % relative to the unprotected controls (5 min. of contact with ozone 10 ppm): 18.9 ± 2.4%
drop in induced stress (5 minutes of exposure to ozone 10 ppm): 81.1%
% fluorescence observed ±SEM, expressed as % relative to the unprotected controls (10 min. of contact with ozone 10 ppm): 25.9 ± 3.8%
drop in induced stress (10 minutes of exposure to ozone 10 ppm): 74.1%
% fluorescence observed ±SEM, expressed as % relative to the unprotected controls (20 min. of contact with ozone 10 ppm): 51.4 ± 10.2%
drop in induced stress (20 minutes of exposure to ozone 10 ppm): 48.6%

Source: patent US20040047823A1, “Use of ergothioneine and/or its derivatives as an anti-pollution agent” (priority 2003, published 2004)
